In experiment [1] the target is T1, human SLC6A19 and TMEM27 (Homo sapiens, UniProt Q695T7).
T1 construct: expressed in transfected cells
T1 sequence (Q695T7 1-634): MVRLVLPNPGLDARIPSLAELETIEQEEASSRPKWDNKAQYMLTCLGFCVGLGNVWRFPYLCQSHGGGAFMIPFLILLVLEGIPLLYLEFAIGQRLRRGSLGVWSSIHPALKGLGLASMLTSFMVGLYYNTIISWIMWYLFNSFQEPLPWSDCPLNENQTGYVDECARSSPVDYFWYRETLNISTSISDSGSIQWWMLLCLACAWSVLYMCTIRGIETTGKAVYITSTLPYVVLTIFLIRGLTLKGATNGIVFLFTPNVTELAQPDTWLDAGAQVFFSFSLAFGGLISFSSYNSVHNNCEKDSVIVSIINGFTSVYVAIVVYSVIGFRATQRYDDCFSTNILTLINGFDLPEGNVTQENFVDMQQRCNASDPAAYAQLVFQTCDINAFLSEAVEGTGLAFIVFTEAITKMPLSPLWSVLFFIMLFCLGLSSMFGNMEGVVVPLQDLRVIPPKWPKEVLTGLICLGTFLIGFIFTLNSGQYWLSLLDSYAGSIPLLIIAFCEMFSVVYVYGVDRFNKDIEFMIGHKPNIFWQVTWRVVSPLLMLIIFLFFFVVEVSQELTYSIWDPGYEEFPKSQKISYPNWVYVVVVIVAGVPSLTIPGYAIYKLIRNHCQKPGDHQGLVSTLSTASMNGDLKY
T1 sequence (Q9HBJ8 15-222 partner): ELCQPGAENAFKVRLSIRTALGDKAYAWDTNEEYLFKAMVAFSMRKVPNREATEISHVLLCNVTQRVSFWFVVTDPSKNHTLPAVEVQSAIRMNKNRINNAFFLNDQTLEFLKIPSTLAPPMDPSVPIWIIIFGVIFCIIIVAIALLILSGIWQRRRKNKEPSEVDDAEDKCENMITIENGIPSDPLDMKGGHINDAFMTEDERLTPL
Briefly: Radiolabelled (3H) leucine uptake in CHO cells with doxycycline-inducible expression of human SLC6A19 and TMEM27 (Example B-1). Format: cell-based. Conditions: CHO cells with doxycycline-inducible expression of human SLC6A19 and TMEM27, read-out: SLC6A19_Radioligand Uptake Assay IC50. The method, boiled down:
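CHO cells were induced with doxycycline for 18 h at 37 °C, washed in HBSS, then exposed to compounds for 1 h: 8-point, 3-fold dilutions in duplicate, 0.5% DMSO final. Uptake measured by scintillation counting after 2 h shaking. Activity normalized with positive control as 0% and DMSO as 100%.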

For experiment [2], the target named is T1, human SLC6A19 and TMEM27. The experiment is described as follows: 13C6,15N-isoleucine uptake in CHO cells with doxycycline-inducible expression of human SLC6A19 and TMEM27, RapidFire mass spectrometry (Example B-2). It counts as cell-based. To be noted: read-out: SLC6A19_RapidFire Uptake Assay IC50. Summed up: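 Read-out is RapidFire mass-spec peak area of 13C6,15N-isoleucine taken up over 20 min at 37 °C, after 20 min compound pre-exposure in pH 7.2 HEPES-buffered saline. Cells: doxycycline-induced CHO co-expressing human SLC6A19 and TMEM27; compounds as duplicate 10-point 2-fold dilutions, positive control setting 0% activity.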

For the compound `CC1(C(=O)NCc2cc3cc(F)c(NCc4cscn4)cc3[nH]2)CC1` [Compound 523, N-((5-fluoro-6-((thiazol-4-ylmethyl)amino)-1H-indol-2-yl)methyl)-1-methylcyclopropane-1-carboxamide], the IC50 – broadly, the point on the concentration scale where inhibition reaches its midpoint – on human SLC6A19 and TMEM27 [1] amounted to 208 nM; at human SLC6A19 and TMEM27 [2], 239 nM.

`Cc1cc(COc2cc3[nH]c(CNC(=O)C4(C)CC4)cc3cc2Cl)no1` [Compound 45, N-((5-chloro-6-((5-methylisoxazol-3-yl)methoxy)-1H-indol-2-yl)methyl)-1-methylcyclopropane-1-carboxamide]: the IC50 amounted to 180 nM at human SLC6A19 and TMEM27 [1]; 75 nM at human SLC6A19 and TMEM27 [2].

`CC1(C(=O)NCc2cc3cc(Cl)c(CCc4ccon4)cc3[nH]2)CC1` [Compound 150, N-((5-chloro-6-(2-(isoxazol-3-yl)ethyl)-1H-indol-2-yl)methyl)-1-methylcyclopropane-1-carboxamide]: the half-maximal inhibitory concentration (IC50) on human SLC6A19 and TMEM27 [1] came out at 120 nM; at human SLC6A19 and TMEM27 [2], 36 nM.

As for `COc1cc2cc(CNC(=O)C3(C)CC3)[nH]c2cc1CCc1ccon1` [Compound 630, N-((6-(2-(isoxazol-3-yl)ethyl)-5-methoxy-1H-indol-2-yl)methyl)-1-methylcyclopropane-1-carboxamide], the half-inhibitory concentration (IC50) at human SLC6A19 and TMEM27 [1] was found to be 156 nM; on human SLC6A19 and TMEM27 [2], 113 nM.

On to `Cc1cc(COc2cc3[nH]c(CNC(=O)C4(C(F)(F)F)CC4)cc3cc2Cl)no1` [Compound 125, N-((5-chloro-6-((5-methylisoxazol-3-yl)methoxy)-1H-indol-2-yl)methyl)-1-(trifluoromethyl)cyclopropane-1-carboxamide], for which the IC50 at human SLC6A19 and TMEM27 [1] is 198 nM; at human SLC6A19 and TMEM27 [2], 145 nM.

With `CC1(C(=O)NCc2cc3cc(Cl)c(OCCc4cscn4)cc3[nH]2)CC1` [Compound 67, N-((5-chloro-6-(2-(thiazol-4-yl)ethoxy)-1H-indol-2-yl)methyl)-1-methylcyclopropane-1-carboxamide], the IC50 on human SLC6A19 and TMEM27 [1] was 169 nM; at human SLC6A19 and TMEM27 [2] it was 117 nM.

For the origin of these results see patent US20240199546A1, “INHIBITORS OF SOLUTE CARRIER FAMILY 6A MEMBER 19 (SLC6A19) AND METHODS OF USE THEREOF” (Maze Therapeutics, Inc., priority 2022, published 2024).
